We go through three compounds from patent US11401278B2, “Macrocyclic indole derivatives” (The Broad Institute, Inc., priority 2017, dated 2022).

Structures can show the parent of a compound that is named as a salt. Where two headings read alike, the source gives them in different places.

Data set [1] relates to SUDHL5. Description: Induction of cytotoxicity (Assay 6), SUDHL5. The conditions noted are these: read-out: Cytotox SUDHL5 [M] (median) IC50, CellTiter-Glo, 5 hours, SUDHL5. In general terms: In ATP-based viability assays light output follows the ATP content of the culture.
In data set [2] the test system is SUDHL5. Description: Antiproliferation assay (Assay 7), SUDHL5. The class given is cell-based. The note with it: CellTiter-Glo, median, read-out: Antiproli SUDHL5 [M] (median) IC50. The gist of the method: (§1)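 Plate cells in treatment and day 0 reference plates; read day 0 plate with CellTiter-Glo after 10 min; incubate treated plates 72 h at 37° C; read them identically.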

The target in a further data set is BCL-2 (Homo sapiens (Human), UniProt P10415). Kind of data set: Protein-protein interaction assay BCL-2/Bad BH3 peptide (BCL-2 assay, TR-FRET). The note with it: His-BCL-2 / Bad BH3 peptide, median. The class given is binding. The gist of the method: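 His-BCL-2 (1-211, E. coli) at 1 nM preincubated 10 min at 22 °C with compound (11 concentrations, 0.1 nM-20 μM, duplicates), then 1 nM biotinylated Bad BH3 peptide added. After 1 h at 22 °C plus overnight at 4 °C, TR-FRET 665/620 ratio normalised to DMSO and no-BCL-2 controls, IC50 from 4-parameter fit.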
Sequence of BCL-2 (P10415 other isoform, or with tags, fused parts or gaps): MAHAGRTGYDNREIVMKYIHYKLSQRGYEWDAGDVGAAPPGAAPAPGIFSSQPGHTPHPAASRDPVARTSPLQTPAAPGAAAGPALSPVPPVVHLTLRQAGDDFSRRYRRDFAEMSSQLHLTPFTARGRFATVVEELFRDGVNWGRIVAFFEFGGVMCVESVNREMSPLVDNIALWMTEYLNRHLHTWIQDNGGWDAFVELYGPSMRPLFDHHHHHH
Background: TR-FRET usually uses a lanthanide donor and a delayed reading to cut background.

For the next data set, the system named is AMO-1. Kind of data set: Antiproliferation assay (Assay 7), AMO-1. The class given is cell-based. The note with it: CellTiter-Glo, several values per example. The gist of the method: as §1

For orientation: IC50 means the point on the concentration scale where inhibition reaches its midpoint. Take `CCc1c2c(nn1C)CN(C)S(=O)(=O)CCCn1c(C(=O)O)c(CCCOc3cccc4cc(F)ccc34)c3ccc(F)c-2c31` (single isomer, unassigned; enantiomer 2) [Example 9, (−)-3-Ethyl-4-fluoro-7-{3-[(6-fluoronaphthalen-1-yl)oxy]propyl}-2,14-dimethyl-13,13-dioxo-10,11,12,13,14,15-hexahydro-2H-13λ^6-pyrazolo[3′,4′:4,5][1,2,8]thiadiazacycloundecino-[6,7,8-hi]indole-8-carboxylic acid (Enantiomer 2)]: the 50% inhibitory concentration (IC50) with SUDHL5 [1] was 1.7e-05 M; with SUDHL5 [2] (72 hours) it was 1.4e-05 M; at BCL-2 it was over 20 µM; with AMO-1 (72 hours, listed as 09, read-out: Antiproli AMO-1 [M] IC50), over 3.3e-05 M.

Take `CCc1c2c(nn1C)CN(CCCN1CCOCC1)S(=O)(=O)CCCn1c(C(=O)O)c(CCCOc3cccc4ccccc34)c3cccc-2c31` (racemic) [Example 15, (rac)-12-Ethyl-11-methyl-8-(3-morpholinopropyl)-1-(3-(naphthalen-1-yloxy)propyl)-4,5,6,8,9,11-hexahydropyrazolo[3′,4′:4,5][1,2,8]thiadiazacycloundecino[6,7,8-hi]indole-2-carboxylic acid 7,7-dioxide 2,2,2-trifluoroacetic acid salt]: the concentration for half-maximal inhibition (IC50) with SUDHL5 [1] (Homo sapiens, SU-DHL-5, 5 h) was 2.9e-06 M; in the data set with SUDHL5 [2] (Homo sapiens, SU-DHL-5, 72 h), 1.8e-06 M; at BCL-2, over 20 µM; in the data set on AMO-1 (Homo sapiens, AMO1, 72 h, read-out: Antiproli AMO-1 [M] IC50), 1.2e-05 M.

As for `CCc1c2c(nn1C)C(CCC1CCOCC1)N(C)S(=O)(=O)CCCn1c(C(=O)O)c(CCCOc3cccc4cc(F)ccc34)c3ccc(Cl)c-2c31` (racemic) [Example 59, (rac)-4-chloro-3-ethyl-7-{3-[(6-fluoro-1-naphthyl)oxy]propyl}-2,14-dimethyl-15-[2-(tetrahydro-2H-pyran-4-yl)ethyl]-11,12,14,15-tetrahydro-2H,10H-pyrazolo[3′,4′:4,5][1,2,8]thiadiazacycloundecino[6,7,8-hi]indole-8-carboxylic acid 13,13-dioxide (Racemate 2)], the half-inhibitory concentration (IC50) with SUDHL5 [1] was 5.9e-08 M; with SUDHL5 [2] (72 hours), 5.6e-08 M; on BCL-2, 17 µM; with AMO-1 (72 hours, read-out: Antiproli AMO-1 [M] IC50) it was 2.1e-07 M.
